Results as given in patent US10568930B2, “Agents and methods of treatment” (Hexima Limited, priority 2014, dated 2020).

What was measured:
Assay type in all cases: cell-based
Settings in all cases: for Expected inhibition: Ee, Limpel formula; for Synergy: Io-Ee
[1] = tested on: Candida albicans; test: Antifungal growth assay, defensin plus chemical fungicide; design: key to Synergy: Io-Ee in % inhibition points; <15 none, 15-30 low, 30-60 medium, >60 high
Protocol: Chemical fungicides were sourced commercially and were prepared as 10× stock solutions in H2O (caspofungin and fenpropimorph) or as a 100× stock in methanol (terbinafine).
(§1) Spores are isolated from sporulating fungus spp. growing on yeast extract peptone dextrose agar (Candida albicans, Cryptococcus gattii—1.5×10^6) or ½ strength Sabouraud dextrose agar (Trichophyton interdigitale, Microsporum fulvum—5×10^4). Spores are removed from the plates by the addition of ½ strength potato dextrose broth (PDB). Spore concentrations are measured using a haemocytometer.
(§2) Antifungal assays were conducted in 96 well microtitre plates. Wells were loaded with 10 μL of filter sterilized (0.22 μm syringe filter, Millipore) defensin (10× stock for each final concentration) or water, 10 μL, of filter sterilized (0.22 μm syringe filter, Millipore) proteinase inhibitor or chemical fungicide (10× stock for each final concentration) or water and 80 μL of 5×10^3 spores/mL in ½ strength PDB. The plates were incubated at 24° C. Fungal growth was assayed by measuring optical density at 595 nm (A595) using a microtitre plate reader (SpectraMax Pro M2; Molecular Devices. Growth was allowed to proceed until the optical density (OD) of the fungus in the absence of any test defensin reached an OD of 0.2. Each test was performed in duplicate.
(§3) Synergy is classified as the difference between the observed % fungal growth inhibition caused by the combination of a defensin and a proteinase inhibitor (or a defensin and a chemical fungicide) (Io value) and the expected % fungal growth inhibition of the defensin and the proteinase inhibitor (or the defensin and the chemical fungicide) based on the sum of the % fungal growth inhibition of the defensin and the proteinase inhibitor (or the defensin and the chemical fungicide) on their own (Ee value calculated according to the Limpel formula used by Richer et al. (1987) supra). The difference, Io-Ee, is the synergy value. A synergy value up to 15 means no significant synergy; 15-30 is a low level of synergy; 30-60 is a medium level of synergy; and >60 is a high level of synergy. Synergy calculations are presented in Tables 2 through 7 wherein, as indicated above, Ee is the expected effect from the additive response according to Limpel's formula expressed as percent inhibition and To is the percent inhibition observed. Synergy occurs when To values are higher than Ee values.

[2] = tested on: Candida albicans; test: Antifungal growth assay, defensin plus proteinase inhibitor; design: key to Synergy: Io-Ee in % inhibition points; >60 high synergy, <15 none
Protocol: as §1, §2, §3

[3] = tested on: Trichophyton interdigitale; test: as above
Protocol: as §1, §2, §3

[4] = permeabilizing defensin 1 μM + Caspofungin (2 ng/ml)
[5] = defensin 2 μM + BPTI (0.625 μM)
[6] = defensin 2 μM + HyCPI6 (2.5 μM)
[7] = defensin 2 μM + SlCys9N (2.5 μM)
[8] = defensin 2.5 μM + Caspofungin (4 ng/ml)
[9] = non-permeabilizing defensin 1 μM + Caspofungin (2 ng/ml)
[10] = defensin 1 μM + HyCPI6 (2.5 μM)
[11] = defensin 1 μM + SlCys9N (2.5 μM)
[12] = defensin 4 μM + BPTI (0.625 μM)
[13] = defensin 4 μM + HyCPI6 (2.5 μM)
[14] = defensin 0.5 μM + BPTI (0.625 μM)
[15] = defensin 0.5 μM + HvCPI6 (2.5 μM)
[16] = defensin 0.5 μM + SlCys9N (2.5 μM)
[17] = defensin 2 μM + Fenpropimorph (2 ug/ml)
[18] = defensin 1 μM + Fenpropimorph (2 ug/ml)
[19] = defensin 1 μM + BPTI (0.625 μM)
[20] = defensin 4 μM + SlCys9N (2.5 μM)

HXL004: Class I permeabilizing plant defensin, mature protein SEQ ID NO:28 (RTCESQSHRFKGLCFSRSNCASVCHTEGFNGGHCRGFRRRCFCTRHC; HXL004 Nicotiana benthamiana)
Observed inhibition [1, 4]: 92.3% | Expected inhibition [1, 4]: 14.0% | Synergy [1, 4]: 78.3 | Observed inhibition [2, 5]: 91.2% | Expected inhibition [2, 5]: 9.6% | Synergy [2, 5]: 81.6 | Observed inhibition [2, 6]: 93.5% | Expected inhibition [2, 6]: 63.6% | Synergy [2, 6]: 29.9 | Observed inhibition [2, 7]: 81.8% | Expected inhibition [2, 7]: 55.2% | Synergy [2, 7]: 26.6

HXL009: Class I permeabilizing plant defensin, mature protein SEQ ID NO:33 (TVCMRHNNFYHGPCMSNKDCANSCVQHNLGVGGYCRGKIPFNKECMCTFEC; HXL009)
Observed inhibition [1, 8]: 65.2% | Expected inhibition [1, 8]: 3.7% | Synergy [1, 8]: 61.5

RsAFP2: non-permeabilizing defensin used as comparison (QKLCQRPSGTWSGVCGNNNACKNQCIRLEKARHGSCNYVFPAHKCICYFPC; UniProt P30230 30-80, looked up) [reference compound]
Observed inhibition [1, 9]: 19.0% | Expected inhibition [1, 9]: 1.7% | Synergy [1, 9]: 17.3

HXL013: Class I permeabilizing plant defensin, mature protein SEQ ID NO:31 (KDCLTRRHGFQGRCLFDRQCAHVCRSDGFIGGQCRGPLRKCFCSRPC; HXL013 glycine max)
Observed inhibition [1, 4]: 90.8% | Expected inhibition [1, 4]: 4.3% | Synergy [1, 4]: 86.5 | Observed inhibition [2, 10]: 100.0% | Expected inhibition [2, 10]: 10.1% | Synergy [2, 10]: 89.9 | Observed inhibition [2, 11]: 100.0% | Expected inhibition [2, 11]: 13.8% | Synergy [2, 11]: 86.2

HXL002: Class I permeabilizing plant defensin, mature protein SEQ ID NO:27 (RDCLSQSHKFKGACLSSSNCAAVCRTENFPDGECHTHNFARKCFCKRAC; HXL002 Triticum aestivum)
Observed inhibition [1, 8]: 40.8% | Expected inhibition [1, 8]: 6.1% | Synergy [1, 8]: 34.7

HXL001: Class I permeabilizing plant defensin, mature protein SEQ ID NO:26 (RHCLSQSHRFKGLCMSSNNCANVCQTENFPGGECKAEGATRKCFCKKIC; HXL001 Zea mays)
Observed inhibition [1, 8]: 73.4% | Expected inhibition [1, 8]: 11.7% | Synergy [1, 8]: 61.7 | Observed inhibition [2, 12]: 72.6% | Expected inhibition [2, 12]: 2.6% | Synergy [2, 12]: 70.1 | Observed inhibition [2, 13]: 84.2% | Expected inhibition [2, 13]: 59.2% | Synergy [2, 13]: 25.0 | Observed inhibition ([2]; defensin 4 μM + SlCys9N (2 μM)): 85.0% | Expected inhibition ([2]; defensin 4 μM + SlCys9N (2 μM)): 68.1% | Synergy ([2]; defensin 4 μM + SlCys9N (2 μM)): 16.9 | Observed inhibition [3, 14]: 67.4% | Expected inhibition [3, 14]: 36.9% | Synergy [3, 14]: 30.5 | Observed inhibition [3, 15]: 84.7% | Expected inhibition [3, 15]: 32.5% | Synergy [3, 15]: 52.2 | Observed inhibition [3, 16]: 70.2% | Expected inhibition [3, 16]: 16.8% | Synergy [3, 16]: 53.4

HXL008: Class I permeabilizing plant defensin, mature protein SEQ ID NO:30 (KVCTKPSKFFKGLCGTDGACTTACRKEGLHSGYCQLKGFLNSVCVCRKHC; HXL008 Picramnia pentandra)
Observed inhibition [1, 17]: 87.3% | Expected inhibition [1, 17]: 46.7% | Synergy [1, 17]: 40.6 | Observed inhibition [2, 5]: 100.0% | Expected inhibition [2, 5]: 0.0% | Synergy [2, 5]: 100.0 | Observed inhibition [2, 6]: 63.8% | Expected inhibition [2, 6]: 14.8% | Synergy [2, 6]: 49.0 | Observed inhibition [2, 7]: 98.9% | Expected inhibition [2, 7]: 30.2% | Synergy [2, 7]: 68.7

HXL015: Class I permeabilizing plant defensin, mature protein SEQ ID NO:32 (RHCLSQSHRFKGMCVSSNNCANVCRTESFPDGECKSHGLERKCFCKKVC; HXL015 Oryza sativa)
Observed inhibition [1, 18]: 71.8% | Expected inhibition [1, 18]: 19% | Synergy [1, 18]: 52.8 | Observed inhibition [2, 19]: 100.0% | Expected inhibition [2, 19]: 28.1% | Synergy [2, 19]: 71.9 | Observed inhibition [2, 10]: 100.0% | Expected inhibition [2, 10]: 0.0% | Synergy [2, 10]: 100.0 | Observed inhibition [2, 11]: 94.7% | Expected inhibition [2, 11]: 0.0% | Synergy [2, 11]: 94.7

HXL012: Class I permeabilizing plant defensin, mature protein SEQ ID NO:25 (RMCKAPSKLFRGMCGIRDSNCDSVCRAEGMAAGDCHGLRRRCICSRPC; HXL012 Amaranthus retroflexus)
Observed inhibition [1, 8]: 51.2% | Expected inhibition [1, 8]: 0% | Synergy [1, 8]: 51.2 | Observed inhibition [2, 12]: 89.7% | Expected inhibition [2, 12]: 14.8% | Synergy [2, 12]: 74.9 | Observed inhibition [2, 13]: 100.0% | Expected inhibition [2, 13]: 12.3% | Synergy [2, 13]: 87.7 | Observed inhibition [2, 20]: 97.3% | Expected inhibition [2, 20]: 34.5% | Synergy [2, 20]: 62.8
